According to PMC7274154, “Identification and Characterization of GPCRs for Pyrokinin and CAPA Peptides in the Brown Marmorated Stink Bug, Halyomorpha halys (Hemiptera: Pentatomidae)” (Frontiers in Physiology, 2020):
Entries after “also recorded” stand apart in the source; their conditions may differ. Where no end group is shown, it is not given here.

Columns and labels:
Assay type in all cases: cell-based, Halyomorpha halys
HalhaPK-R2 [1] = test: Concentration-response, calcium mobilization (FLIPR Calcium 6) in Sf9 cells expressing HalhaPK-R2; details: for EC50: HalhaPK-R2 in Sf9 cells, intracellular calcium, FLIPR Calcium 6 fluorescence, at least three independent experiments, read-out: Half-maximum effective concentration (EC50); for Response in functional assay (words): HalhaPK-R2, Sf9 cells, concentration-response
Method: (§1) Five micrograms of each purified pIB/HalhaPK-R (or CAPA-R) plasmid and 15 μL of Cellfectin II reagent (Thermo Fisher Scientific) were diluted into 500 μL of serum free Insectagro Sf9 medium (Corning, Corning, NY, United States) and allowed to incubate for 10 min at room temperature, after which they were mixed together and allowed to incubate for an additional 15–20 min. Each pIB/HalhaPK-R (or CAPA-R) Cellfectin mixture was then added to T-25 cell culture flasks containing Sf9 cells at 50% confluency and incubated overnight at 28°C. The following morning the media was removed from each flask and replaced with media containing 20 μg/mL blasticidin (Corning). Each transfected cell line was cultured in the presence of 20 μg/mL blasticidin for ∼3 weeks until a blasticidin-resistant cell line was established, after which the blasticidin concentration was reduced to 10 μg/mL and the cell lines were frozen prior to testing in functional assays.
(§2) Peptides encoded by H. halys pyrokinin and capa genes used in this study have been recently identified ([Ahn and Choi, 2018]). Four peptides (>95% purity): PK2 (FYAPFSPRLa), CAPA-PVK1 ([…]a), CAPA-PVK2 (EQLIPFPRVa), and CAPA-DH (= PK1-like, […]a) were synthesized to contain an amide group on their C-termini (Peptide 2.0 Inc., Chantilly, VA, United States). Peptides were solubilized in water, aliquoted into 2–20 nM working stocks, dried using a DNA120 SpeedVac Concentrator (Thermo Scientific), and frozen at –20°C until use in binding assays.
(§3) For each cell line expressing a specific H. halys PRXamide receptor, cells were thawed and cultured for at least three passages in a suspension culture containing blasticidin prior to functional assays. The transfected cell lines were grown as 20 mL suspension cultures in 50 mL-Erlenmeyer flasks with a screw cap, and shaken at 145 rpm at 28°C. For functional assays, cells were taken from a suspension culture in the exponential growth phase, and ∼50,000 cells were plated into each well of a tissue culture-treated, black-walled, 96-well plate (Corning). The plated cells were then incubated at 28°C for 48 h, after which the media was removed from the plates and the wells were rinsed with serum-free media, then loaded with 95 μL of 1X FLIPR Calcium 6 assay reagent (Molecular Devices, Sunnyvale, CA, United States). Plates were incubated at room temperature for 60 min then transferred to a FlexStation 3 Multi-Mode Microplate Reader (Molecular Devices) to measure cell fluorescence intensity from intracellular calcium influx after peptide-induced receptor activation. Wells of cells were then treated with 5 μL of water or 20X concentrations of each peptide using the automated injection system of the FlexStation plate reader. In all experiments, fluorescence was measured every 5 s for 30 s prior to treatment and for 2 min after exposure. In all cases, the maximum response obtained occurred ∼20 s after exposure to ligand. The mean response of four wells receiving the same treatment was calculated and expressed as a change in fluorescence from baseline (prior to treatment) to maximum response. For initial screening, each cell line was exposed to a single concentration of 500 nM of each peptide or control. Compounds that elicited responses were tested further in concentration-response experiments. Concentration-response curves and EC50 values were generated using the variable slope, four parameter non-linear regression function of GraphPad Prism data analysis (GraphPad Software, Inc., San Diego, CA, United States). Each cell line was tested for its response to peptides in at least three independent experiments.

HalhaCAPA-R = test: Concentration-response, calcium mobilization (FLIPR Calcium 6) in Sf9 cells expressing HalhaCAPA-R; details: for EC50: HalhaCAPA-R in Sf9 cells, intracellular calcium, FLIPR Calcium 6 fluorescence, at least three independent experiments, read-out: Half-maximum effective concentration (EC50); for Response in functional assay (words): HalhaCAPA-R, Sf9 cells, concentration-response
Method: as §1, §2, §3

HalhaPK-R1a [2] = test: Concentration-response, calcium mobilization (FLIPR Calcium 6) in Sf9 cells expressing HalhaPK-R1a; details: for EC50: HalhaPK-R1a in Sf9 cells, intracellular calcium, FLIPR Calcium 6 fluorescence, at least three independent experiments, read-out: Half-maximum effective concentration (EC50)
Method: as §1, §2
as §3, with “Concentration-response curves and EC50 values were generated using the variable slope, four parameter non-linear regression function of GraphPad Prism data analysis (GraphPad Software, Inc., San Diego, CA, United States). Each cell line was tested for its response to peptides in at least three independent experiments.” left out

HalhaPK-R1b [3] = test: Concentration-response, calcium mobilization (FLIPR Calcium 6) in Sf9 cells expressing HalhaPK-R1b; details: for EC50: HalhaPK-R1b in Sf9 cells, intracellular calcium, FLIPR Calcium 6 fluorescence, at least three independent experiments, read-out: Half-maximum effective concentration (EC50)
Method: as §1, §2
as §3, with “Concentration-response curves and EC50 values were generated using the variable slope, four parameter non-linear regression function of GraphPad Prism data analysis (GraphPad Software, Inc., San Diego, CA, United States). Each cell line was tested for its response to peptides in at least three independent experiments.” left out

HalhaPK-R3a [4] = test: Concentration-response, calcium mobilization (FLIPR Calcium 6) in Sf9 cells expressing HalhaPK-R3a; details: for EC50: HalhaPK-R3a in Sf9 cells, intracellular calcium, FLIPR Calcium 6 fluorescence, at least three independent experiments, read-out: Half-maximum effective concentration (EC50); for Response in functional assay (words): HalhaPK-R3a, Sf9 cells, concentration-response
Method: as §1, §2, §3

HalhaPK-R3b [5] = test: Concentration-response, calcium mobilization (FLIPR Calcium 6) in Sf9 cells expressing HalhaPK-R3b; details: for EC50: HalhaPK-R3b in Sf9 cells, intracellular calcium, FLIPR Calcium 6 fluorescence, at least three independent experiments, read-out: Half-maximum effective concentration (EC50); for Response in functional assay (words): HalhaPK-R3b, Sf9 cells, concentration-response
Method: as §1, §2, §3

HalhaPK-R1b [6] = test: Initial screening at 500 nM, Sf9 cells expressing HalhaPK-R1b; details: three independent experiments
Method: as §1, with “Each transfected cell line was cultured in the presence of 20 μg/mL blasticidin for ∼3 weeks until a blasticidin-resistant cell line was established, after which the blasticidin concentration was reduced to 10 μg/mL and the cell lines were frozen prior to testing in functional assays.” left out
(§4) For each cell line expressing a specific H. halys PRXamide receptor, cells were thawed and cultured for at least three passages in a suspension culture containing blasticidin prior to functional assays. […] Plates were incubated at room temperature for 60 min then transferred to a FlexStation 3 Multi-Mode Microplate Reader (Molecular Devices) to measure cell fluorescence intensity from intracellular calcium influx after peptide-induced receptor activation. Wells of cells were then treated with 5 μL of water or 20X concentrations of each peptide using the automated injection system of the FlexStation plate reader. In all experiments, fluorescence was measured every 5 s for 30 s prior to treatment and for 2 min after exposure. […]

HalhaPK-R3b [7] = test: Initial screening at 500 nM, Sf9 cells expressing HalhaPK-R3b; details: three independent experiments
Method: as §1, with “Each transfected cell line was cultured in the presence of 20 μg/mL blasticidin for ∼3 weeks until a blasticidin-resistant cell line was established, after which the blasticidin concentration was reduced to 10 μg/mL and the cell lines were frozen prior to testing in functional assays.” left out
as §4

HalhaPK-R1a [8] = test: Initial screening at 500 nM, Sf9 cells expressing HalhaPK-R1a; details: three independent experiments
Method: as §1, with “Each transfected cell line was cultured in the presence of 20 μg/mL blasticidin for ∼3 weeks until a blasticidin-resistant cell line was established, after which the blasticidin concentration was reduced to 10 μg/mL and the cell lines were frozen prior to testing in functional assays.” left out
as §4

HalhaPK-R2 [9] = test: Initial screening at 500 nM, Sf9 cells expressing HalhaPK-R2; details: three independent experiments
Method: as §1, with “Each transfected cell line was cultured in the presence of 20 μg/mL blasticidin for ∼3 weeks until a blasticidin-resistant cell line was established, after which the blasticidin concentration was reduced to 10 μg/mL and the cell lines were frozen prior to testing in functional assays.” left out
as §4

HalhaPK-R3a [10] = test: Initial screening at 500 nM, Sf9 cells expressing HalhaPK-R3a; details: three independent experiments
Method: as §1, with “Each transfected cell line was cultured in the presence of 20 μg/mL blasticidin for ∼3 weeks until a blasticidin-resistant cell line was established, after which the blasticidin concentration was reduced to 10 μg/mL and the cell lines were frozen prior to testing in functional assays.” left out
as §4

Molecule | EC50 (HalhaPK-R2 [1]) [nM] | EC50 (HalhaCAPA-R) [nM] | Response in functional assay (words) (HalhaCAPA-R) | EC50 (HalhaPK-R1a [2]) [nM] | EC50 (HalhaPK-R1b [3]) [nM] | EC50 (HalhaPK-R3a [4]) [nM] | EC50 (HalhaPK-R3b [5]) [nM] | Ligand-induced receptor activation (response in words) (HalhaPK-R1b [6]) | Ligand-induced receptor activation (response in words) (HalhaPK-R3b [7]) | Ligand-induced receptor activation (response in words) (HalhaPK-R1a [8]) | Response in functional assay (words) (HalhaPK-R3a [4]) | Ligand-induced receptor activation (response in words) (HalhaPK-R2 [9]) | Ligand-induced receptor activation (response in words) (HalhaPK-R3a [10]) | also measured
CC(C)C[C@H](NC(=O)CNC(=O)[C@H](C)NC(=O)[C@@H](N)CC(=O)O)C(=O)N[C@@H](Cc1ccccc1)C(=O)N1CCC[C@H]1C(=O)N[C@@H](Cc1ccccc1)C(=O)N1CCC[C@H]1C(=O)N[C@@H](CCCNC(=N)N)C(=O)N[C@H](C(N)=O)C(C)C [CAPA-PVK1] | > 1000 | 80 | responded specifically to PVK1 and PVK2 peptides; also recorded: concentration-dependent response to PVK1 and PVK2 (Figure 2), with similar sensitivity and degree of absolute magnitude | > 1000 | > 1000 | > 1000 | > 1000 |  |  |  |  |  |  | 
CC[C@H](C)[C@H](NC(=O)[C@H](CC(C)C)NC(=O)[C@H](CCC(N)=O)NC(=O)[C@@H](N)CCC(=O)O)C(=O)N1CCC[C@H]1C(=O)N[C@@H](Cc1ccccc1)C(=O)N1CCC[C@H]1C(=O)N[C@@H](CCCNC(=N)N)C(=O)N[C@H](C(N)=O)C(C)C [CAPA-PVK2] | > 1000 | 57 | responded specifically to PVK1 and PVK2 peptides; also recorded: concentration-dependent response to PVK1 and PVK2 (Figure 2), with similar sensitivity and degree of absolute magnitude | > 1000 | > 1000 | > 1000 | > 1000 |  |  |  |  |  |  | 
FYAPFSPRL-NH2 [PBAN/PK2] | 35 | > 1000 |  | > 1000 | 420 | 199 | 142 | responded to PK2 and CAPA-DH peptides to varying degrees | responded to PK2 and CAPA-DH peptides to varying degrees | responded to PK2 and CAPA-DH peptides to varying degrees | positive concentration-dependent activity | responded to PK2 and CAPA-DH peptides to varying degrees | responded to PK2 and CAPA-DH peptides to varying degrees | Response in functional assay (words) (HalhaPK-R2 [1]): strongest response; also recorded: responded strongly; also recorded: positive concentration-dependent activity; also recorded: much more sensitive to PK2 than the PK1 peptide; Response in functional assay (words) (HalhaPK-R1a [2]; HalhaPK-R1a, Sf9 cells, concentration-response): positive concentration-dependent activity; also recorded: responded weakly; Response in functional assay (words) (HalhaPK-R1b [3]; HalhaPK-R1b, Sf9 cells, concentration-response): positive concentration-dependent activity; also recorded: responded weakly; Response in functional assay (words) (HalhaPK-R3b [5]): positive concentration-dependent activity; also recorded: strongly responded to both PK1 and PK2 peptides
NGASGNGGLWFGPRL-NH2 [CAPA-DH/PK1] | 800 | > 1000 |  | > 1000 | > 1000 | 660 | 91 | responded to PK2 and CAPA-DH peptides to varying degrees | responded to PK2 and CAPA-DH peptides to varying degrees | responded to PK2 and CAPA-DH peptides to varying degrees | concentration-dependent responses | responded to PK2 and CAPA-DH peptides to varying degrees | responded to PK2 and CAPA-DH peptides to varying degrees | Response in functional assay (words) (HalhaPK-R2 [1]; listed as CAPA-DH): concentration-dependent responses; Response in functional assay (words) (HalhaPK-R2 [1]; listed as PK1): moderate response; Response in functional assay (words) (HalhaPK-R3b [5]; listed as CAPA-DH): highest sensitivity to PK1 (= CAPA-DH), especially for HalhaPK-R3b; also recorded: concentration-dependent responses; also recorded: most sensitive to CAPA-DH among the six GPCRs; Response in functional assay (words) (HalhaPK-R3b [5]; listed as PK1): strongest response to PK1; also recorded: strongly responded to both PK1 and PK2 peptides
